According to ChEMBL document CHEMBL1138245, “Discovery of N1-(6-chloroimidazo[2,1-b][1,3]thiazole-5-sulfonyl)tryptamine as a potent, selective, and orally active 5-HT(6) receptor agonist” (J Med Chem, 2007):

What was measured:
[1] = target: T1, 5-hydroxytryptamine receptor 6 (Homo sapiens, UniProt P50406); assay: Displacement of [3H]LSD from human 5HT6 receptor expressed in HeLa cells; format: cell-based
[2] = target: T1, 5-hydroxytryptamine receptor 6; assay: Agonist activity at human 5HT6 receptor expressed in HeLa cells assessed as cAMP production; format: functional, cell-based
[3] = target: T1, 5-hydroxytryptamine receptor 6; assay: Antagonist activity at human 5HT6 receptor expressed in HeLa cells assessed as cAMP production; format: functional, cell-based

T1 sequence (P50406 whole entry): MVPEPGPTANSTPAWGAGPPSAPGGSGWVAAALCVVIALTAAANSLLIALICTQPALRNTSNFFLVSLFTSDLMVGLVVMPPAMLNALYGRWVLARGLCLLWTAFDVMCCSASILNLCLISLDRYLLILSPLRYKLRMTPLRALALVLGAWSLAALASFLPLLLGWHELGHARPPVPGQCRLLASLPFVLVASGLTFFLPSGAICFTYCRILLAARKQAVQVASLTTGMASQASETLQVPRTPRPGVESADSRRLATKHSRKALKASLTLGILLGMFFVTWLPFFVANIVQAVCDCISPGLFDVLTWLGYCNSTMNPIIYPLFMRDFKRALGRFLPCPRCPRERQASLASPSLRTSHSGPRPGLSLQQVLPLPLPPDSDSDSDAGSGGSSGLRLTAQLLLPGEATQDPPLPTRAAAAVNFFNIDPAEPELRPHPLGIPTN

SMILES | Ki [1] | EC50 [2] | Emax [2] | IC50 [3] | Imax [3]
NCCc1cn(S(=O)(=O)c2ccc(Br)s2)c2ccccc12 | 7 nM | 54 nM | 72% | – | –
NCCc1cn(S(=O)(=O)c2cc(Cl)c(Cl)s2)c2ccccc12 | 31 nM | – | – | – | –
COc1ccc(S(=O)(=O)n2cc(CCN)c3ccccc32)cc1OC | 7 nM | – | – | 17.5 nM | 80.5%
NCCc1cn(S(=O)(=O)c2ccccc2)c2ccccc12 | 10 nM | 73 nM | 92% | – | –
CN(C)CCn1cc(S(=O)(=O)c2cccc(F)c2)c2ccccc21 | 10.3 nM | – | – | – | –
NCCc1cn(S(=O)(=O)c2ccccc2I)c2ccccc12 | 16 nM | – | – | – | –
NCCc1cn(S(=O)(=O)c2ccc(Cl)cc2)c2ccccc12 | 10 nM | 174 nM | 93.5% | – | –
NCCc1cn(S(=O)(=O)c2cccc(Cl)c2)c2ccccc12 | 6 nM | 108 nM | 100% | – | –
CN1C=C(S(=O)(=O)n2cc(CCN)c3ccccc32)SC1N (stereo unspecified) | 10 nM | – | – | 9.6 nM | 83%
